Experimental data: patent US20100273189A1, “NON SEPARATION ASSAYS WITH SELECTIVE SIGNAL INHIBITORS” (BECKMAN COULTER, INC., priority 2009, published 2010)

Target: T1, biotinylated HRP (Armoracia rusticana, UniProt P00433)
T1 construct: purchased Roche Diagnostics, Indianapolis, Ind., USA
T1 sequence (P00433 31-338 limits assumed): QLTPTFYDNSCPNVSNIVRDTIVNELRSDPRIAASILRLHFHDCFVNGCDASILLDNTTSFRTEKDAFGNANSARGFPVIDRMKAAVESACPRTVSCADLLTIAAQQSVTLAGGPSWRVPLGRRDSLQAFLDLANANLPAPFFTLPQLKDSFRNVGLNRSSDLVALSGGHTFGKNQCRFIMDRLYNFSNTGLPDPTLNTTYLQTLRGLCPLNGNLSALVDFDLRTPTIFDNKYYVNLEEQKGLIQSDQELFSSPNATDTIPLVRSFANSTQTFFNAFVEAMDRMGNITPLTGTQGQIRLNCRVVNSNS
Assay: Model system for selection of SSIA (M280 btn-BSA-AK1-streptavidin particles + Btn-HRP:HRP)
Format: biochemical
Details: for S/S0: Btn-HRP 0 ng/mL vs 0; for S/S0 / S1/S0 / S2/S0 / S3/S0 / S4/S0 / effect in the model system / utility as SSIA: SSIA 100 μM; for B-HRP0 light intensity: Btn-HRP 0 ng/mL; for B-HRP0 light intensity / B-HRP1 light intensity / B-HRP10 light intensity / B-HRP100 light intensity / B-HRP250 light intensity: total HRP 500 ng/mL, SSIA final 100 μM; for S1/S0: Btn-HRP 1 ng/mL vs 0; for B-HRP1 light intensity: Btn-HRP 1 ng/mL; for S2/S0: Btn-HRP 10 ng/mL vs 0; for B-HRP10 light intensity: Btn-HRP 10 ng/mL; for S3/S0: Btn-HRP 100 ng/mL vs 0; for B-HRP100 light intensity: Btn-HRP 100 ng/mL; for S4/S0: Btn-HRP 250 ng/mL vs 0; for B-HRP250 light intensity: Btn-HRP 250 ng/mL; for effect in the model system / utility as SSIA: conclusion in words
Method: The model system uses a microparticle conjugated to BSA (bovine serum albumin) labeled with a […] and acridan ketenedithioacetal chemiluminescent label (AK1) as the chemiluminescent-labeled sbp, and biotinylated HRP as the activator-labeled specific binding pair. In the model system, varying amounts of Btn-HRP is added to the chemiluminescent-labeled specific binding pair at 0, 1, 10, 100 and 250 ng/mL. Additional unlabeled HRP is added to reach a total HRP of concentration of 500 ng/mL in each reaction mixture. The unlabeled HRP in combination with the activator-labeled sbp was provided to the chemiluminescent-labeled sbp microparticles to emulate sample. A compound for assessment as an SSIA was also added. This reaction mixture of the model system is then triggered by addition of trigger solution in a manner of assays of the present disclosure.
To prepare the chemiluminescent-labeled sbp on microparticles, Bovine Serum Albumin (BSA) was biotinylated with 4× molar excess of biotin-LC-sulfoNHS (Pierce Biotechnology Inc., Rockford, Ill., USA). Unbound reactants were removed via desalting or dialysis. The biotin-BSA was then reacted with a 5× molar excess of acridan ketenedithioacetal AK1 in 20 mM sodium phosphate pH 7.2: DMSO 75:25, v/v) followed by desalting in the same buffer. The dual labeled (biotin and AK1) BSA was then coupled with tosyl activated M-280 microparticles (Invitrogen Corporation, Carlsbad, Calif., USA) in a 0.1 M borate buffer pH 9.5 at a concentration of ca. 20 μg labeled BSA per mg of microparticles for 16-24 h at 40° C. After coupling the microparticles were stripped for 1 h at 40° C. with 0.2 M TRIS base, 2% SDS, pH ˜11. The stripping process was repeated one additional time. Microparticles were then suspended in a 0.1% BSA/TRIS buffered saline (BSA/TBS) buffer and streptavidin (SA) was added at approximately 15 μg SA per mg microparticles. Streptavidin was mixed with the microparticles for 45-50 min at room temperature. The microparticles were then washed three times and suspended in the same BSA/TBS.
HRP, (Roche Diagnostics, Indianapolis, Ind., USA) was biotinylated with 4× molar excess of biotin-LC-sulfoNHS (Pierce Biotechnology Inc., Rockford, Ill., USA). Unbound reactants were removed via desalting or dialysis.
Each SSIA compound for assessment was dissolved in Buffer II at a concentration at least 10× of final concentration of the reaction mixture (after the addition of the trigger solution)
Paramagnetic particles (PMP): (M280)-(btn-BSA-AK)-(Streptavidin);
Sample Emulator: B-HRP:HRP; 500 ng/mL total with titration of B-HRP:HRP at Total HRP concentration of 500 ng/mL, with Btn-HRP variations: 0, 1, 10, 100 and 250 ng/mL.
SSIA: According to tables below in BUFFER II targeted to give a final concentration of 100 μM.
Trigger solution A is defined above.
5 μl of 1 mg/ml of dual-labeled (biotin and AK1) BSA M280 particles were mixed with 45 μl of working concentration SSIA in Buffer II. The assay volume brought to […] by adding 15 μl of Buffer II. 15 μl of sample containing Btn-HRP:HRP at different ratios (The amount of biotinylated-HRP varied from 0, 1, 10, 100 and 250 ng/mL) was added. The reaction mixture was incubated for 30 min at 37° C., then 100 μL of trigger solution was added and the light intensity recorded. Total volume of reaction mixture, including trigger solution was […] with a final concentration of 100 μM of SSIA.

SMILES	S/S0	B-HRP0 light intensity	S1/S0	B-HRP1 light intensity	S2/S0	B-HRP10 light intensity	S3/S0	B-HRP100 light intensity	S4/S0	B-HRP250 light intensity	effect in the model system / utility as SSIA
Cc1c(C)c2c(c(C)c1O)CC[C@@](C)(CCC[C@H](C)CCC[C@H](C)CCCC(C)C)O2 (racemic) [(+/−)-alpha-Tocopherol, (±)-a-Tocopherol]	1	2,772	2.3	6,468	452.1	1,253,187	3088.2	8,560,469	3473.4	9,628,184	
Oc1ccc(O)c(Cl)c1 [2-chloro-1,4-dihydroxybenzene]	1	3,571	1.1	4,007	52.9	188,920	170.8	610,053	245.3	875,831	demonstrating utility as SSIA
Cl.Nc1ccc(O)cc1O [4-aminoresorcinol HCl, 4-aminoresorcinol hydrochloride]	1	675	1.7	1,163	110.8	74,764	489	330,056	384.5	259,541	demonstrating utility as SSIA
Oc1ccc(Cl)cc1O [4-chlorocatechol]	1	93	2.2	205	14.8	1,373	4910.8	456,707	13558.5	1,260,937	demonstrating utility as SSIA
CC1(C)OC[C@@H]([C@H]2OC(=O)C(O)=C2O)O1 [5,6iso-propyliene ascorbic acid, 5,6-Isopropylidene-L-Ascorbic acid]	1	264	3.6	961	112.3	29,645	18626.9	4,917,499	33275	8,784,595	demonstrating utility as SSIA
N[C@@H](CS)C(=O)O [Cysteine]	1	35,695	1.6	58,203	69.6	2,483,411	256.3	9,147,371	285.5	10,190,505	no effect
COc1cc(/C=C/C(=O)O)ccc1O [Ferulic acid]	1	5,252	2.3	12,079	136.2	715,313	1672.9	8,785,865	1950.5	10,244,269	
COc1ccc2[nH]cc(CCNC(C)=O)c2c1 [Melatonin]	1	54,528	1.3	70,741	43.7	2,381,361	173.7	9,471,431	190.2	10,370,061	no effect
NNC(=O)c1cccnc1 [Nicotinic Hydrazide]	1	42,260	1.4	58,356	49.8	2,106,471	194.2	8,205,320	187.5	7,923,092	no effect

Now from value to compound:

S/S0	B-HRP0 light intensity	S1/S0	B-HRP1 light intensity	S2/S0	B-HRP10 light intensity	S3/S0	B-HRP100 light intensity	S4/S0	B-HRP250 light intensity	effect in the model system / utility as SSIA	SMILES
1	35,016	2	71,751	70	2,450,949	246.9	8,647,037	252.7	8,847,921	no effect	O=C(O)CCCC[C@@H]1CCSS1 (racemic) [Lipoic Acid]
1	972	2.9	2,808	454.2	441,455	6076.7	5,906,521	6587.9	6,403,425	demonstrating utility as SSIA	Nc1ccc(C(=O)O)cc1O [4-Amino-3-hydroxybenzoic acid, 4-amino-3-hydroxybenzoic acid]
1	6,051	1.8	10,924	278.7	1,686,079	1437.5	8,698,069	1699.4	10,282,504		Cc1c(O)cc2c(c1C)O[C@](C)(CCC[C@H](C)CCC[C@H](C)CCCC(C)C)CC2 [(+)-gamma-Tocopherol, (+)-y-Tocopherol]
1	81	4	327	502.4	40,863	100662.3	8,187,204	125193.6	10,182,411	demonstrating utility as SSIA	CCCCCCCCCCCCCCCC(=O)OC[C@H](O)[C@H]1OC(=O)C(O)=C1O [Ascorbic Acid 6-palmitate, L-Ascorbic acid 6-Palmitate]
1	43,647	1.1	47,636	40.3	1,757,607	199	8,685,795	234.2	10,219,869	no effect	CC(=O)N[C@@H](CS)C(=O)O [N-Ac-Cysteine, N-acetyl cysteine]
